The results in this text go back to patent US20070093894A1, “Incorporation of antimicrobial combinations onto devices to reduce infection” (Baylor College of Medicine, priority 2005, published 2007).

Common to all, as to type: cell-based
In test [1] the test system is Enterococcus faecalis (gram positive). The experiment in a line: Zone of inhibition on agar, antibiotic-coated composite hernia patch segments. The conditions noted are these: hernia patch (polypropylene mesh/PTFE) segment 10x10x2 mm, coating solution 100 mg/ml of each antibiotic, long axis perpendicular to agar; for zone of inhibition at 100000 µg/mL: Enterococcus faecalis. As to the method: (§1) The device used in this example is a composite hernia patch with polypropylene mesh on one side and polytetrafluoroethylene (PTFE) on the other side. Antibiotics were incorporated onto devices by using a patented method (U.S. Pat. No. 6,589,591) that utilized coating solutions that contained 100 mg/ml of minocycline; 100 mg/ml tobramycin; 100 mg/ml gentamicin; 100 mg/ml minocycline and 100 mg/ml tobramycin (minocycline dissolved first); or 100 mg/ml minocycline and 100 mg/ml gentamicin (minocycline dissolved first). The tested square device segments were 10 mm (long)×10 mm (wide)×2 mm (thick). The device segments were placed onto agar with their long axis perpendicular to the agar (i.e. only 2 mm of the segment was in contact with the agar). All zone of inhibition are expressed in mm, and table 1 summarizes the results of the zones of inhibition.

The subject of test [2] is Escherichia coli (gram negative). The test is described as above. The conditions noted are these: hernia patch (polypropylene mesh/PTFE) segment 10x10x2 mm, coating solution 100 mg/ml of each antibiotic, long axis perpendicular to agar; for zone of inhibition at 100000 µg/mL: Escherichia coli. As to the method: as §1
The subject of test [3] is Staphyulococcus aureus (gram positive). Described as above. The conditions noted are these: hernia patch (polypropylene mesh/PTFE) segment 10x10x2 mm, coating solution 100 mg/ml of each antibiotic, long axis perpendicular to agar. The procedure: as §1
Test [4] has as its system Staphylococcus epidermidis. In words: Zone of inhibition on agar, antibiotic-coated polyurethane central venous catheter segments. The conditions noted are these: 7-french polyurethane central venous catheter segment 10x2 mm, coating solution 100 mg/ml of each antibiotic, long axis parallel to agar; for zone of inhibition at 100000 µg/mL: Staphylococcus epidermidis. The procedure: The device used in this example is a 7-french, polyurethane central venous catheter. Antibiotics were incorporated onto devices by using a patented method (U.S. Pat. No. 6,589,591) that utilized coating solutions that contained 100 mg/ml of minocycline; 100 mg/ml tobramycin; 100 mg/ml gentamicin; 100 mg/ml minocycline and 100 mg/ml tobramycin (minocycline dissolved first); or 100 mg/ml minocycline and 100 mg/ml gentamicin (minocycline dissolved first). The tested catheter segments were 10 mm (long)×2 mm (wide). The cather segments were placed onto agar with their long axis parerrel to the agar. All zone of inhibition are expressed in mm, and table 2 summarizes the results of the zones of inhibition.

Regarding `CN(C)c1ccc(O)c2c1C[C@H]1C[C@H]3[C@H](N(C)C)C(O)=C(C(N)=O)C(=O)[C@@]3(O)C(O)=C1C2=O` [Minocycline, minocycline], the zone of inhibition at 100000 µg/mL in test [1] is 3 mm; in test [2], 3 mm; in test [3], 11 mm; in test [4] it was 30 mm.

On to `NC[C@H]1O[C@H](O[C@H]2[C@H](O)[C@@H](O[C@H]3O[C@H](CO)[C@@H](O)[C@H](N)[C@H]3O)[C@H](N)C[C@@H]2N)[C@H](N)C[C@@H]1O` [Tobramycin, tobramycin], for which the zone of inhibition at 100000 µg/mL came to 9 mm in test [1], 18 mm in test [2], 12 mm in test [3] and 14 mm in test [4].

Regarding gentamicin, the “zone of inhibition, Enterococcus faecalis (gram positive)” value in test [1] is 0 mm. The “zone of inhibition, Escherichia coli (gram negative)” value in test [2] came out at 11 mm. In addition, in test [3], the “zone of inhibition, Staphyulococcus aureus (gram positive)” value came out at 14 mm. Besides, in test [4], the “zone of inhibition, Staphylococcus epidermidis” value was 6 mm.

Broadly, the zone of inhibition is the size of the clear area around the sample on an inoculated plate. A high value points to a stronger effect on the plate.
